# Test results taken from patent publication US20250345458A1, “COMPLEXING AGENT SALT FORMULATIONS OF PHARMACEUTICAL COMPOUNDS AT LOW STOICHIOMETRIC RATIOS” (Bexson Biomedical, Inc., priority 2022, published 2025).
# Where “and” joins values, the source holds several entries; their conditions need not be identical. Identical values can stand only once. Entries after “also recorded” stand apart in the source; their conditions may differ. Counter-ions that a name gives are not always drawn. Marks after values point to notes of the source that are not given here.
# Experiments:
# [1] = Concentration test of rimantadine HCl in water; format: physicochemical
# Method: A solution of 50 mg/mL rimantadine HCl, FB equivalents, (120.3 mg, 0.56 mmol), was prepared by adding 1.7 mL of HPLC grade water and an addition of a solution of benzethonium chloride (20 μL, […], 0.01% final concentration). […] It was diluted until it did dissolve, which took a total of 4.6 mL of HPLC (including the initial 1.7 mL). The solution was left to stir overnight. The solution was diluted to 5 mL, making the final concentration 20 mg/mL. The pH was 6.83 and the solution was filtered through a 0.20 micron syringe filter. The osmolality was 205 mOsm/kg.
# A separate test was performed on another 50 mg/mL solution of rimantadine HCl, FB equivalents (60.2 mg, 0.28 mmol), dissolved in 800 μL of HPLC grade water and an addition of a solution of benzethonium chloride (10 μL, 1 mg/mL, 0.01% final concentration).
# [2] = pH of API formulations (pH meter); format: physicochemical; settings: for final pH: after 2M NaOH
# [3] = Osmolality of API formulations (micro osmometer, triplicate); format: physicochemical
# [4] = Visual dissolution / precipitation of API free base-CapAcid formulations at stated API:CapAcid ratios; format: physicochemical
# [5] = cited from earlier work
# [6] = literature value; cited from earlier work
# [7] = Osmolality of API formulations (micro osmometer, triplicate); format: physicochemical; remark: listed apart in the source
# Method: Osmolality readings were obtained on an Advanced Instruments Advanced™ Micro Osmometer Model 3300 (Advanced Instruments, Inc. Norwood, MA, USA). Saline solutions (0.9% and 3%) were run as positive controls. Each sample was calculated as the mean from back-to-back triplicate measurements. When replicate batches were measured, data was reported as mean±SEM.
# The procedure was performed on a 2 mL scale. […] Benzethonium chloride (20 μL of a 1% solution, 0.01% final concentration) was added via micropipette. The pH was adjusted to ˜7.00 with 2M sodium hydroxide, or either 1M or 2M HCl in some cases, and then the mixture was transferred to a 2 mL volumetric flask to be diluted with HPLC grade water. […]
# Method 1: In a 5 mL borosilicate glass test tube which contained a Teflon-coated magnetic stir bar, Captisol®-Na+ ([…], H+ equivalents, moisture corrected) was dissolved in HPLC grade water (1.6-1.7 mL), API salt (HCl in most cases) (70 mg/mL FB equivalents) was added and the mixture was stirred until a homogenous transparent solution formed. Benzethonium chloride (20 μL of a 1% solution, giving a 0.01% final concentration) was added via micropipette. The pH was adjusted to ˜7.00 with 1M or 2M sodium hydroxide, or either 1M or 2M HCl in some cases, and then the mixture was transferred to a 2 mL volumetric flask to be diluted with HPLC grade water. […]
# Benzethonium chloride (20 μL of a 1% solution, giving a 0.01% final concentration) was added via micropipette. The pH was adjusted to ˜7.00 with 1M or 2M sodium hydroxide, or either 1M or 2M HCl in some cases, and then the mixture transferred to a 2 mL volumetric flask to be diluted with HPLC grade water. […]
# The solution was transferred to a 2 mL volumetric flask and diluted to the target volume with HPLC grade water. […]
# [8] = cited from earlier work; remark: listed apart in the source
# [9] = in water, cited from earlier work; for Reported Freebase Solubility: vendor or literature value
# [10] = Stability of tigecycline FB CapAcid solution on standing; format: physicochemical; settings: 70 mg/mL FB with 1.1 molar equivalents of CapAcid, FIG. 1A
# Method: The formulation of Tigecycline FB CapAcid was prepared as follows. The preparation procedure for Tigecycline FB CapAcid Formulation was modified from the general procedure. A solution of 70 mg/mL Tigecycline FB (69.9 mg, 0.12 mmol) and 1.1 equivalents of CapAcid, H^+ equivalents, (43.7 mg moisture corrected, 40.8 mg active, 0.02 mmol, 0.13 mmol H^+) was prepared by dissolving CapAcid in 700 μL of HPLC grade water, then adding the freebase and stirring until a homogenous solution formed. Benzethonium chloride (10 μL, 1 mg/mL, 0.01% final concentration) was added to the solution. NaOH (2M) was added until the pH was 7.00±0.01. The solution was diluted to 1 mL and the final pH was determined to be 6.99. […] The solution was filtered through a 0.45 micron syringe filter.
# [11] = Dissolution of API freebase in aqueous CapAcid / Captisol solutions at defined API:CapAcid ratios, visual inspection and NaOH titration; settings: for Successful in a 70 mg/mL API-CapAcid Formulation (Y/N): 70 mg/mL FB
# [12] = Reported solubility in water of APIs (freebase and salt); format: physicochemical
# Method: Table 5 lists the solubility and pKa values of the various APIs described above.
# A challenge was that reliable solubility data for certain APIs was difficult to locate (especially for the freebase forms). As such in a number of instances only predicted values could be located and in the case of rimantidine HCl this value was inconsistent with our empirical results. Likewise, the drugbank predicted value for tigecycline was 0.01455 mg/mL, whereas a literature value was 0.45 mg/mL. The solubility of a range of poor to moderately to highly soluble APIs as freebases as well as common commercial API salt forms will be determined.
# [13] = API-CapAcid salts prepared in ethanol, then 70 mg of solid added to 1 mL water (visual); format: physicochemical
# Method: The resulting solid API-CapAcid salts were then obtained as solids by evaporation of the ethanol, followed by lyophilization.
# In a scintillation vial, a solution of API FB (100 mg) and CapAcid (1 molar equivalent, moisture corrected) was prepared by dissolving Cap Acid in 200 proof ethanol (5 mL) and then adding the freebase API. […] Whether or not the freebase dissolved after the second addition of ethanol, the initial pH, prior to titration, was recorded. The vial was then wrapped in foil and left uncovered in the hood to allow the ethanol to evaporate. After the ethanol fully evaporated, a small amount of HPLC grade water (3-5 mL) was added to each to see if the product would dissolve or become a suspension in the water. The solution was then lyophilized to remove the water. The product was ground with a stir rod and 70±0.1 mg was added to 1 mL of water to see if it would dissolve.
# [14] = concentration test solution diluted to 20 mg/mL, with benzethonium chloride
# [15] = 70 mg/mL API FB, 1 equivalent 6M HCl, 1.1 equivalents Captisol®-Na^+, before NaOH/HCl
# [16] = 70 mg/mL API FB, 1.1 equivalents CapAcid, before NaOH/HCl
# [17] = 70 mg/mL API FB and 1 equivalent of 6M HCl in water
# [18] = 70 mg/mL API FB, 1 equivalent of 6M HCl, 1.1 equivalents Captisol®-Na^+
# [19] = *70 mg/mL API FB + molar equivalent of 6M HCl in water
# [20] = API FB CapAcid formulation, 70 mg/mL API FB, 1.1 equivalents CapAcid (H^+ equivalents), after titration
# [21] = CapAcid-API Freebase Formulation (70 mg/mL API FB, 1.1 molar equivalent CapAcid), after pH titration with NaOH or HCl
# [22] = Captisol®-Na^+ formulation, *70 mg/mL API FB + 6M HCl, 1.1 molar equivalent Captisol®-Na^+
# [23] = 1:1 ratio of API to CapAcid (relative to the cyclodextrin), water
# [24] = 2:1 ratio of API to CapAcid (relative to the cyclodextrin), water
compound,measurement,setting,value
CC(N)C12CC3CC(CC(C3)C1)C2 (stereo not shown) [Rimantadine HCl],"dissolution at 50 mg/mL, FB equivalents",[1]; HPLC grade water with 0.01% benzethonium chloride,did not dissolve
same,solubility,"[1]; pH 6.83, aqueous with cosolvent or surfactant or cyclodextrin, thermodynamic from solid, HPLC grade water, stirred overnight, read-out: concentration at which the salt was soluble in water (FB equivalents)",20 mg/mL
same,pH,[2]; [14],6.83
same,Osmolality,[3]; [14],205 mOsm/kg
same,dissolution state of the formulation,[4]; HCl,fully dissolved; also recorded: incompletely dissolved
"CO[C@H]1C[C@@H]2CC[C@@H](C)[C@@](O)(O2)C(=O)C(=O)N2CCCC[C@H]2C(=O)O[C@H]([C@H](C)C[C@@H]2CC[C@@H](O)[C@H](OC)C2)CC(=O)[C@H](C)/C=C(\C)[C@@H](O)[C@@H](OC)C(=O)[C@H](C)C[C@H](C)/C=C/C=C/C=C/1C [Rapamycin, rapamycin]",reported strongest acidic pKa,[5],9.96
same,strongest basic pKa,[5],−3
NCC[C@H](O)C(=O)N[C@@H]1C[C@H](N)[C@@H](O[C@H]2O[C@H](CN)[C@@H](O)[C@H](O)[C@H]2O)[C@H](O)[C@H]1O[C@H]1O[C@H](CO)[C@@H](O)[C@H](N)[C@H]1O [Amikacin],pKa,[6],8.1^14
same,pH of the solution prior to titration,[2]; [15],1.28
same,pH of the solution prior to titration,[2]; [16],1.13 and 1.25
same,Osmolality,[7]; [17],287 mOsmol/kg
same,Osmolality,[7]; [18],504.3 mOsmol/kg
same,Osmolality,[7]; [19],287* mOsm/kg
same,Osmolality,[7]; [20],268 mOsmol/kg and 252.2 mOsmol/kg
same,Osmolality,[7]; [21],1: 268 mOsm/kg and 2: 252.3 mOsm/kg
same,Osmolality,[7]; [22],504.3* mOsm/kg
CC(=O)[C@H]1CC[C@H]2[C@@H]3CC[C@H]4C[C@H](O)CC[C@]4(C)[C@H]3CC[C@]12C [Brexanolone],oral bioavailability,[8],poor
"CN(C)c1cc(NC(=O)CNC(C)(C)C)c(O)c2c1C[C@H]1C[C@H]3[C@H](N(C)C)C(O)=C(C(N)=O)C(=O)[C@@]3(O)C(O)=C1C2=O [Tigecycline, tigecycline]",pH of the solution prior to titration,[2]; [15],5.61
same,pH of the solution prior to titration,[2]; [16],5.19 and 5.37
same,Osmolality,[7]; [17],138.3 mOsmol/kg
same,Osmolality,[7]; [18],330.3 mOsmol/kg
same,Osmolality,"[7]; 70 mg/mL FB, 1.1 equivalents CapAcid, 1 mL scale, recorded the next day after the solution had turned yellow-brown",158.7 mOsmol/kg
same,Osmolality,[7]; [19],138.3* mOsm/kg
same,Osmolality,[7]; [20],99.3 mOsmol/kg and 92.7 mOsmol/kg
same,Osmolality,[7]; [21],1: 99.3 mOsm/kg and 2: 92.7 mOsm/kg
same,Osmolality,[7]; [22],330.3* mOsm/kg
same,Reported Freebase Solubility,[9],0.45 mg/mL
same,stability of the formulation,[10],degradation after 24 hours
N=C(N)c1ccc2cc(OC(=O)c3ccc(N=C(N)N)cc3)ccc2c1 [Nafamostat],pH of the solution before titration,[2]; 1:1 ratio of API to CapAcid,0.49
same,final pH,[2]; 1:1 ratio of API to CapAcid,6.99
same,pH of the solution before titration,[2]; 2:1 ratio of API to CapAcid,1.55
same,final pH,[2]; 2:1 ratio of API to CapAcid,6.96
same,Osmolality,"[3]; API FB with Captisol® Sodium, 1 molar equivalent relative to the cyclodextrin, after 48 hours",354.3 mOsm/Kg
same,concentration (FB equivalents) at which the freebase dissolved,[11]; [23],33.3 mg/mL
same,concentration (FB equivalents) at which the freebase dissolved,[11]; [24],3 mg/mL
same,concentration at which the freebase dissolved,"[11]; API FB with Captisol® Sodium 1 molar equivalent, water, stirring 30 minutes",~16.7 mg/mL
CC(N)C12CC3CC(CC(C3)C1)C2 (stereo not shown) [Rimantadine],pH of the solution prior to titration,"[2]; 20 mg/mL API HCl (FB equivalent), 1.1 equivalents Captisol®-Na^+, before NaOH",4.65
same,pH of the solution prior to titration,[2]; [16],1.93
same,pH,"[2]; CapAcid-API Freebase Formulation (70 mg/mL API FB, 1.1 molar equivalent CapAcid), final pH after titration and dilution",6.98
same,Osmolality,"[3]; 20 mg/mL API HCl (FB equivalent), 1.1 equivalents Captisol®-Na^+",297.3 mOsmol/kg
same,Osmolality,"[3]; API Salt in water, ***20 mg/mL FB equivalents",195.3 mOsm/kg
same,solubility,[12],~20 mg/mL
same,osmolality and pH in words,[7]; 70 mg/mL API-Cap formulation,isosmotic and PH neutral
same,Osmolality,[7]; [20],301.7 mOsmol/kg
same,Osmolality,[7]; [21],301.7 mOsm/kg
same,Osmolality,"[7]; Captisol®-Na^+ formulation of API salt, ***20 mg/mL FB equivalents, 1.1 molar equivalent Captisol®-Na^+",297.3*** mOsm/kg
same,Successful in a 70 mg/mL API-CapAcid Formulation (Y/N),"[11]; water, listed as Rimantidine",prepared at 70 mg/mL without issue
CCOC(=O)c1ncn2c1CN(C)C(=O)c1cc(F)ccc1-2 [Flumazenil],pKa,[6],2.87^21
same,Reported Freebase Solubility,[9],1.2 mg/mL
same,Successful in a 70 mg/mL API-CapAcid Formulation (Y/N),[11]; water,unsuccessful
CCCN(CCc1cccs1)[C@H]1CCc2c(O)cccc2C1 [rotigotine],pKa (amine),[6],10.97
same,pKa (phenol),[6],10.03
same,pH of the solution before titration,[2]; 1:1 ratio of API to CapAcid,0.93
same,final pH,[2]; 1:1 ratio of API to CapAcid,5.49
same,pH of the solution before titration,[2]; 2:1 ratio of API to CapAcid,1.66
same,final pH,[2]; 2:1 ratio of API to CapAcid,5.51
same,Reported Salt Solubility,[9],3.51 mg/mL^17
same,solubility compared to higher API:captisol ratio,[4]; 1:1 ratio to captisol compared to 2:1 ratio,superior solubility
same,appearance at higher API:captisol ratio,[4]; 2:1 ratio to captisol,precipitation
same,concentration (FB equivalents) at which the freebase dissolved,[11]; [23],10 mg/mL
same,concentration (FB equivalents) at which the freebase dissolved,[11]; [24],3 mg/mL
same,dissolution by visual inspection,"[11]; 2:1 ratio of API to CapAcid, 100 mg FB in 30 mL water (3 mg/mL)",most of the FB dissolved
same,pH of the ethanol solution prior to titration,[13]; API FB 100 mg + CapAcid 1 molar equivalent (H^+) in 10 mL 200 proof ethanol,5.63
same,dissolution of 70 mg of the ethanol-prepared API-CapAcid solid in 1 mL water,"[13]; visual, vortexed",did not dissolve in water
